21 compounds from ChEMBL document CHEMBL1142688, “Development and preliminary optimization of indole-N-acetamide inhibitors of hepatitis C virus NS5B polymerase” (J Med Chem, 2005) can be followed below.

pEC50, pIC50: −log10 of the molar value.

Data set [1] has as its target T1, RNA-directed RNA polymerase (Hepacivirus hominis, UniProt O39930). Briefly: Inhibitory concentration against RNA dependent RNA polymerase nonstructural protein 5B of hepatitis C virus.
Data set [2] has as its target T1, RNA-directed RNA polymerase. The experiment in a line: Inhibitory activity against RNA dependent RNA polymerase nonstructural protein 5B in hepatitis C virus; n=1.
The nature of data set [3]: (§1) Cytotoxic concentration against hepatitis C virus. The format is functional, Hepacivirus hominis.
Data set [4] addresses T1, RNA-directed RNA polymerase. The experiment in a line: Inhibitory concentration against NS5B polymerase of Hepatitis C virus; n=1.
Data set [5] has the same target. Briefly: Effective concentration to inhibit the activity of RNA dependent RNA polymerase nonstructural protein 5B in hepatitis C virus; n=1.
Data set [6] concerns Hepatitis C virus. The data set is described as §1. The format is functional, Hepacivirus hominis.
The test system of data set [7] is Hepacivirus hominis. The experiment in a line: Concentration to inhibit hepatitis C virus replication by 85%. The class given is functional.
Data set [8] in a line: Total clearance after administration of 20 mg/kg in dog. The format is ADME, organism-based, Canis lupus familiaris. Also on record: dose 20 mg/kg. The following applies: in vivo.
Data set [9] in a line: Half life after administration of 20 mg/kg in dog. The format is ADME, organism-based, Canis lupus familiaris. Also noted: dose 20 mg/kg. The following applies: in vivo.
In data set [10] the test system is Hepatitis C virus. Briefly: Effective concentration to inhibit RNA replication in hepatitis C virus. The format is functional, organism-based, Hepacivirus hominis.

T1 sequence (O39930 whole entry): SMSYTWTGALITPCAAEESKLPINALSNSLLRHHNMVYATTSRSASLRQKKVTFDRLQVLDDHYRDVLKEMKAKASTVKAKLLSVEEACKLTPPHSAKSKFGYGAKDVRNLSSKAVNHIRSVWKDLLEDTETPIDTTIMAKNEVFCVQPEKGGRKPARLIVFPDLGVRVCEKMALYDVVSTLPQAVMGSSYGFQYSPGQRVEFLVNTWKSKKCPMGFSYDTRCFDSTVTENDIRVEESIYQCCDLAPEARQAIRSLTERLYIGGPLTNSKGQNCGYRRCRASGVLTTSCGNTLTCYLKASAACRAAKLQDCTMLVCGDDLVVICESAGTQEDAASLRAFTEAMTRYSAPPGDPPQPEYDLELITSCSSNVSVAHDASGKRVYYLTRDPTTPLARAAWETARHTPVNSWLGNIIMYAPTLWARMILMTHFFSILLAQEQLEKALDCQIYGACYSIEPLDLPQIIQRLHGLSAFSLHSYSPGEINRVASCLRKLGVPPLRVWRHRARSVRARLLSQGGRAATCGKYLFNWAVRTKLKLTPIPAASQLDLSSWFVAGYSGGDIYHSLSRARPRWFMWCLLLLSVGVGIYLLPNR

A word on the pIC50: it is the IC50 on a negative log10 scale, so that one unit is a factor of ten. In turn, `O=C(O)c1ccc2c(C3CCCCC3)c(-c3ccc(O)cc3)[nH]c2c1` gave a pIC50 in data set [1] of 8.32.
For orientation: CC50 means the concentration at which the toxic effect on the cells reaches its halfway point. `CN(C)C(=O)Cn1c(-c2ccccc2Cl)c(C2CCCCC2)c2ccc(C(=O)O)cc21`: in data set [2], the pIC50 is 6.43. This compound also showed a CC50 in data set [3] above 50000 nM.
For the compound `O=C(O)c1ccc2c(C3CCCCC3)c(-c3ccccc3)n(Cc3ccccc3)c2c1`, the pIC50 in data set [2] was 7.43.
For `O=C(O)c1ccc2c(c1)nc(-c1ccc(O)cc1)n2C1CCCCC1`, the pIC50 in [1] was 8.52.
For `CN(C)C(=O)Cn1c(-c2ccc(Cl)cc2)c(C2CCCCC2)c2ccc(C(=O)O)cc21`, the pIC50 in data set [4] is 7.82. The CC50 in [3] was above 50000 nM.
In the case of `O=C(O)c1ccc2c(C3CCCCC3)c(-c3ccccc3)[nH]c2c1`, the pIC50 in [2] was 7.32.
As for `O=C(O)c1ccc2c(c1)nc(-c1ccc(O)cc1F)n2C1CCCCC1`, the pIC50 in data set [1] was 8.85.
On to `Cc1ccc(-c2c(C3CCCCC3)c3ccc(C(=O)O)cc3n2CC(=O)N(C)C)cc1`, for which the pIC50 in data set [2] was 7.77. The CC50 in [3] is above 50000 nM.
`CN(C)C(=O)Cn1c(-c2cccc(F)c2)c(C2CCCCC2)c2ccc(C(=O)O)cc21` had a pIC50 in data set [2] of 7.74. Moreover, in data set [3], the CC50 is above 50000 nM.
As a reminder, the pEC50 is the EC50 on a negative log10 scale, so that one unit is a factor of ten. Read a low pEC50 as a large EC50. Consider `Cc1ccc(-c2c(C3CCCCC3)c3ccc(C(=O)O)cc3n2CC(=O)N2CCOCC2)cc1`, for which, in data set [2], the pIC50 is 7.96. Moreover, the pEC50 in [5] is 6.52. In data set [6], the CC50 is above 50000 nM.
As to `O=C(O)c1ccc2c(C3CCCCC3)c(-c3ccccc3)n(S(=O)(=O)c3ccccc3)c2c1`, the pIC50 in data set [2] is 6.31.
In data set [1], `O=C(O)c1ccc2c(c1)cc(-c1ccc(O)cc1)n2C1CCCCC1` gave a pIC50 of 6.47.
The compound `CN(C)C(=O)Cn1c(-c2ccc(OCc3ccccc3)cc2)c(C2CCCCC2)c2ccc(C(=O)O)cc21` showed a pIC50 in [2] of 8.22. In addition, the CC50 in data set [3] is above 50000 nM. The compound also had a Concentration in [7] of 0.3 µM.
With `O=C(O)c1ccc2c(C3CCCCC3)c(-c3ccccc3)n(CC(=O)N3CCOCC3)c2c1`, the pIC50 in [2] was 7.59. The same compound showed a CC50 in data set [3] above 50000 nM.
The like results for `COc1ccc(-c2c(C3CCCCC3)c3ccc(C(=O)O)cc3n2CC(=O)N(C)C)cc1` were, in that order, 7.74 and above 50000 nM.
As usually defined, the clearance is a measure of how efficiently the substance is removed, as volume per time. As usually defined, the half-life is the time in which the quantity being followed falls by half. Lower therefore signals rapid decline. On to `CN(C)C(=O)Cn1c(-c2ccccc2)c(C2CCCCC2)c2ccc(C(=O)O)cc21`, for which, in [2], the pIC50 is 7.23. This compound also showed a clearance in data set [8] of 3 mL/min/kg. This compound also had a half-life in [9] of 4.8 h. Further, the cytotoxic concentration (CC50) in data set [3] is above 50000 nM.
For the compound `O=C(O)c1ccc2c(c1)nc(-c1ccc(OCc3cc(C(=O)N4CCC(O)CC4)ccc3-c3ccc(Cl)cc3)cc1F)n2C1CCCCC1`, the pIC50 in [1] was above 8.22. The same compound had a pEC50 in data set [10] of 6.30.
In data set [2], `CN(C)C(=O)Cn1c(-c2cccc(Cl)c2)c(C2CCCCC2)c2ccc(C(=O)O)cc21` gave a pIC50 of 7.40. In data set [3], the CC50 is above 50000 nM.
Consider `CS(=O)(=O)NC(=O)Cn1c(-c2ccccc2)c(C2CCCCC2)c2ccc(C(=O)O)cc21`, for which the pIC50 in data set [2] was 7.35.
In data set [2], `Cn1c(-c2ccccc2)c(C2CCCCC2)c2ccc(C(=O)O)cc21` showed a pIC50 of 7.55.
Regarding `O=C(O)c1ccc2c(C3CCCCC3)c(-c3ccccc3)n(CCN3CCOCC3)c2c1`, the pIC50 in [2] is 6.95.
